Measurements reported in patent publication US9174973B2, “Crystalline forms of azilsartan and preparation and uses thereof” (SUNSHINE LAKE PHARMA CO., LTD., priority 2011, dated 2015).

Experiment: solubility test of crystalline forms in 0.1M HCl (Chinese Pharmacopoeia 2010)
Assay type: physicochemical
Conditions: 300 mg sample in 6 mL 0.1M HCl, 25° C.±2° C., 30 minutes, observed with eyes
Experimental: The solubility of crystalline forms A, B, C and D was measured in accordance with the solubility test described in “Chinese Pharmacopoeia 2010”, Topic and Requirement 15. A crystalline form of azilsartan was grinded into powder. The powder (300 mg) was added to 6 ml of 0.1M HCl as the solvent at 25° C.±2° C. […] The total test time was 30 minutes. The solid was deemed as dissolved when no solid was detected in the mixture by human eyes. The solubility data of crystalline forms A, B, C and D of azilsartan are as shown below.

## CCOc1nc2cccc(C(=O)O)c2n1Cc1ccc(-c2ccccc2-c2noc(=O)[nH]2)cc1 [Form D]
  Result (solubility): dissolved
